Measured values from the supplement of paper PMC6733853.

Assays:
[1] = target: delta opioid receptor (human) (UniProt P41143); assay: Log(tau/KA) transduction coefficient (log10 (M-1)); higher = more effective agonism; conditions: receptor: human DOR
[2] = target: delta opioid receptor (rat) (UniProt P33533); assay: as above; conditions: receptor: rat DOR
mu opioid receptor (rat) [3] = target: mu opioid receptor (rat) (UniProt P33535); assay: as above; conditions: receptor: rat MOR
[4] = target: delta opioid receptor (rat) (UniProt P33533)
[5] = target: mu opioid receptor (human) (UniProt P35372); assay: Log(tau/KA) transduction coefficient (log10 (M-1)); higher = more effective agonism; conditions: receptor: human MOR
mu opioid receptor (rat) [6] = target: mu opioid receptor (rat) (UniProt P33535)

Chain of delta opioid receptor (human) (P41143 whole entry): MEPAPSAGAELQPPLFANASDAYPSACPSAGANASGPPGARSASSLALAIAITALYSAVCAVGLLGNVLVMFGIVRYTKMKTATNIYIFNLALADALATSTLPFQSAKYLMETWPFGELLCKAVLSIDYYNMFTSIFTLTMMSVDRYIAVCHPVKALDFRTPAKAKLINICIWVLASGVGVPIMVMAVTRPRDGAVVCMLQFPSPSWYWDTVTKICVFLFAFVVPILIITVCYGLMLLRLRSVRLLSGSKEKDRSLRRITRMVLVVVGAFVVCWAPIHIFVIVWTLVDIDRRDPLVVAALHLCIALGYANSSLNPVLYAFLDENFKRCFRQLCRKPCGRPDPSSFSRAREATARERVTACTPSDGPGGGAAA
Chain of delta opioid receptor (rat) (P33533 whole entry): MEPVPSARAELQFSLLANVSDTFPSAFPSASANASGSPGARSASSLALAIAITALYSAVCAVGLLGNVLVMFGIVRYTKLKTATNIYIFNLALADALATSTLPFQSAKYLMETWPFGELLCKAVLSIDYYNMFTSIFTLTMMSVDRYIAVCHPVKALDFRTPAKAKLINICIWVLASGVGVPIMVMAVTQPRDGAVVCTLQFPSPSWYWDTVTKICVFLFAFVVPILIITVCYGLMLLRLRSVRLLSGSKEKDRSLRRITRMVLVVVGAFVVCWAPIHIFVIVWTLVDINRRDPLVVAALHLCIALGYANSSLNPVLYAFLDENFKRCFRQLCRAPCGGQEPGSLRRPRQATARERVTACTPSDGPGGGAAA
Chain of mu opioid receptor (rat) (P33535 whole entry): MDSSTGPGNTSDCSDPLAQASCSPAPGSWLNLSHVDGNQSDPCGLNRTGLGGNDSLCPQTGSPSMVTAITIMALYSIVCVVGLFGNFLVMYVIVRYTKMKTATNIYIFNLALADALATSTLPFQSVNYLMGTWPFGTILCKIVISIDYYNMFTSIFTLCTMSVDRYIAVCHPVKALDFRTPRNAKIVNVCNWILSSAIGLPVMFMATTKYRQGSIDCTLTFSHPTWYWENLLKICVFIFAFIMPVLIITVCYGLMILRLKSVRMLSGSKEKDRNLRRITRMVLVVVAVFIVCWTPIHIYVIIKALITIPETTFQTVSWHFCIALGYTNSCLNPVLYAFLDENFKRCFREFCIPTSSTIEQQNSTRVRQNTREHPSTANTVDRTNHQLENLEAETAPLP
Chain of mu opioid receptor (human) (P35372 whole entry): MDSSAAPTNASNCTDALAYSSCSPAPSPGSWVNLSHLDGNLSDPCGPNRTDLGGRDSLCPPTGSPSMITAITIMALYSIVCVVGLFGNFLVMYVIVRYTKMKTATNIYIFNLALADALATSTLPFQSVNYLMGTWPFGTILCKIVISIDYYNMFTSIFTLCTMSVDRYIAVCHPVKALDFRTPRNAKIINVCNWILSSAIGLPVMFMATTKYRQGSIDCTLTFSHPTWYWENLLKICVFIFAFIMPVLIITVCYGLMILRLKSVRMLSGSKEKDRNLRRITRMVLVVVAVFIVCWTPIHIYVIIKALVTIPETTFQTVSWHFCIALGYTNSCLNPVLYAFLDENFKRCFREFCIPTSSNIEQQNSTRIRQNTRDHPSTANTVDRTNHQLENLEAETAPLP

CO[C@@]12CC[C@@]3(C[C@@H]1[C@](C)(O)C(C)(C)C)[C@H]1Cc4ccc(O)c5c4[C@@]3(CCN1CC1CC1)[C@H]2O5 [Buprenorphine]
Log(tau/KA) transduction coefficient (log10)
Conditions	Gαi1	Gαi2	Gαo	Kir	cAMP	βarrestine 2	βarrestine 2-GRK2	βarrestine 2-GRK5	βarrestine 2-GRK6
[1]	5.51	6.73	6.61	4.88	8.45	–	–	–	3.5
[2]	6.16	6.14	6.06	4.6	7.87	–	–	–	–
mu opioid receptor (rat) [3]	6.88	7.63	7.28	8.05	6.93	5.04	5.79	5.36	–

CO[C@@]12CC[C@@]3(C[C@@H]1[C@](C)(O)C(C)(C)C)[C@H]1Cc4ccc(O)c5c4[C@@]3(CCN1CC1CC1)[C@H]2O5 [Buprenorphine] (receptor: rat DOR)
[4]
Conditions	pEC50
Gαi1	7.49
Gαi2	6.88
Gαo	7.28
Kir	5.53
cAMP	7.78

C[C@@H](NC(=O)[C@@H](N)Cc1ccc(O)cc1)C(=O)NCC(=O)N(C)[C@@H](Cc1ccccc1)C(=O)NCCO [DAMGO]
mu opioid receptor (rat) [3]
Conditions	Log(tau/KA) transduction coefficient (log10)
Gαi1	6.18
Gαi2	7.5
Gαo	6.49
Kir	7.11
cAMP	8.44
βarrestine 1	5.59
βarrestine 2	5.51
βarrestine 2-GRK2	6.21
βarrestine 2-GRK5	6.26
βarrestine 2-GRK6	5.9

CN(C)C(=O)C(CCN1CCC(O)(c2ccc(Cl)cc2)CC1)(c1ccccc1)c1ccccc1 [Loperamide]
Log(tau/KA) transduction coefficient (log10)
Conditions	Gαi1	Gαi2	Gαo	Kir	cAMP	βarrestine 1	βarrestine 2	βarrestine 2-GRK2	βarrestine 2-GRK5	βarrestine 2-GRK6
[1]	4.52	5.79	5.28	5.54	7.28	4.05	4.37	4.62	4.71	4.63
[2]	4.78	5.24	5.22	5.02	5.9	3.96	4.1	4.29	4.61	4.48
mu opioid receptor (rat) [3]	7.2	8.27	7.56	6.46	7.69	6.08	5.68	6.37	6.39	6.04

CN(C)C(=O)C(CCN1CCC(O)(c2ccc(Cl)cc2)CC1)(c1ccccc1)c1ccccc1 [Loperamide] (receptor: rat DOR)
[4]
Conditions	pEC50
Gαi1	5.05
Gαi2	5.42
Gαo	5.51
Kir	5.23
cAMP	6.1
βarrestine 1	4.55
βarrestine 2	4.47
βarrestine 2-GRK2	4.36
βarrestine 2-GRK5	4.83
βarrestine 2-GRK6	4.54

CCC1(c2cccc(O)c2)CCCCN(C)C1 (stereo not given) [Meptazinol]
Log(tau/KA) transduction coefficient (log10)
Conditions	Gαi1	Gαi2	Gαo	Kir	cAMP
[5]	5.23	6.1	6.31	4.84	8.02
mu opioid receptor (rat) [3]	5.15	6.21	5.38	5.41	6.58

CCC1(c2cccc(O)c2)CCCCN(C)C1 (stereo not given) [Meptazinol] (receptor: rat MOR)
mu opioid receptor (rat) [6]
Conditions	pEC50
Gαi1	5.94
Gαi2	6.52
Gαo	6.28
Kir	6.08
cAMP	6.99

CSCC[C@H](NC(=O)[C@H](Cc1ccccc1)NC(=O)CNC(=O)CNC(=O)[C@@H](N)Cc1ccc(O)cc1)C(=O)O [Met-Enk]
Log(tau/KA) transduction coefficient (log10)
Conditions	Gαi1	Gαi2	Gαo	Kir	cAMP	βarrestine 1	βarrestine 2	βarrestine 2-GRK2	βarrestine 2-GRK5	βarrestine 2-GRK6
[1]	5.92	7.02	6.59	7.27	8.98	6.24	6.28	6.57	7.12	6.88
[2]	5.86	6.55	6.44	4.97	9.4	6.29	6.58	6.67	7.03	6.83
[5]	6.47	7.32	7.4	6.58	8.62	5.9	5.97	6.66	6.65	6.36
mu opioid receptor (rat) [3]	7.24	8.73	6.21	6.72	8.44	5.63	5.65	6.24	6.35	6.06

CN1CC[C@]23c4c5ccc(O)c4O[C@H]2[C@@H](O)C=C[C@H]3[C@H]1C5 [Morphine]
Log(tau/KA) transduction coefficient (log10)
Conditions	Gαi1	Gαi2	Gαo	Kir	cAMP	βarrestine 2	βarrestine 2-GRK2	βarrestine 2-GRK5	βarrestine 2-GRK6
[1]	4.26	5.75	5.24	5.05	8.19	–	–	4.04	3.94
[2]	4.41	5.31	5.14	4.79	6.68	4.16	4.24	4.53	4.2
mu opioid receptor (rat) [3]	6.9	8.35	7.99	7.44	8.08	5.69	6.29	6.37	5.35

COc1ccc2c3c1O[C@H]1C(=O)CC[C@@]4(O)[C@@H](C2)N(C)CC[C@]314 [Oxycodone]
Log(tau/KA) transduction coefficient (log10)
Conditions	Gαi1	Gαi2	Gαo	Kir	cAMP	βarrestine 1	βarrestine 2	βarrestine 2-GRK2	βarrestine 2-GRK5	βarrestine 2-GRK6
[1]	3.52	5.21	4.26	3.72	6.63	–	–	3.82	3.15	3.02
[2]	2.98	4.41	3.8	3.29	6.08	–	3.12	3.16	3.5	3.31
mu opioid receptor (rat) [3]	5.49	6.52	5.91	5.97	7.45	5.5	–	4.81	5.06	4.81

COc1cccc(C2(O)CCCCC2CN(C)C)c1 (stereo not given) [Tramadol]
Log(tau/KA) transduction coefficient (log10)
Conditions	Gαi1	Gαi2	Gαo	Kir	cAMP
[5]	3.39	4.54	4.27	3.78	6.29
mu opioid receptor (rat) [3]	2.98	4.73	3.82	3.81	5.02
